{"source": "paper PMC8556085", "about": "“Antimicrobial and Antioxidant Secondary Metabolites from Trifolium baccarinii Chiov. (Fabaceae) and Their Mechanisms of Antibacterial Action” (BioMed Research International, 2021)", "type_in_all_cases": "cell-based", "key": {"[1]": {"system": "tested bacteria and yeasts", "assay": "Broth microdilution MIC/MMC, summary over all strains", "settings": "against specific microorganism; cutoff points of ref 33", "how_it_was_run": "(§1)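 Twofold broth microdilution in MHB (bacteria) or SDB (yeasts), final range 2048–0.125 μg/mL. Inocula were 1 × 10^6 CFU/mL for bacteria, incubated at 37 °C for 24 h with shaking, and 1 × 10^5 spores/mL for yeasts (C. albicans 30 °C 48 h; C. neoformans 30 °C 72 h). MIC was the lowest concentration with no visible growth, in triplicate.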"}, "Staphylococcus aureus": {"system": "Staphylococcus aureus", "assay": "Loss of salt tolerance", "settings": "pretreatment 1/2xMIC, MIC, 2xMIC for 1 h; MHA-NaCl 50, 60, 70 g/L", "protocol": "(2) Loss of Salt Tolerance in Staphylococcus aureus. The ability of Staphylococcus aureus ATCC25923 and MRSA03 cells treated with the methanol extract and compound 5 to grow on Mueller-Hinton agar (MHA) supplemented with NaCl was investigated. In preliminary experiments, untreated suspensions of Staphylococcus aureus were plated on MHA supplemented with NaCl from 40 to 100 g/L. Plates were incubated. After incubation, the resulting colonies were counted. Concentrations of NaCl, 50, 60, and 70 g/L, which modestly compromised the colony-forming abilities of untreated microorganisms, were selected. For further experimentation steps, suspensions of bacteria were prepared as previously described and treated with the MeOH extract or compound 5 at 1/2xMIC, MIC, and 2xMIC. After 1 h incubation, samples were removed, serially diluted, and inoculated onto MHA and MHA-NaCl (50, 60, and 70 g/L). Bacterial culture without a sample was used as a control for each MHA-NaCl plate. Upon incubation, the numbers of CFU per milliliter on each MHA-NaCl plate were compared to those on the MHA plate, and the result was expressed as a percentage."}, "[2]": {"system": "methicillin-resistant Staphylococcus aureus 03 (MRSA03)", "assay": "Broth microdilution MIC/MMC", "how_it_was_run": "as §1"}, "[3]": {"system": "methicillin-resistant Staphylococcus aureus 04 (MRSA04)", "assay": "Broth microdilution MIC/MMC", "how_it_was_run": "as §1"}, "[4]": {"system": "Candida albicans ATCC10231", "assay": "Broth microdilution MIC/MMC", "how_it_was_run": "as §1"}, "Escherichia coli S2(1)": {"system": "Escherichia coli S2(1)", "assay": "Broth microdilution MIC/MMC", "how_it_was_run": "as §1"}, "[5]": {"system": "Cryptococcus neoformans H99", "assay": "Broth microdilution MIC/MMC", "how_it_was_run": "as §1"}, "[6]": {"system": "Staphylococcus aureus ATCC25923", "assay": "Broth microdilution MIC/MMC", "how_it_was_run": "as §1"}, "[7]": {"system": "Pseudomonas aeruginosa ATCC27853", "assay": "Broth microdilution MIC/MMC", "how_it_was_run": "as §1"}, "[8]": {"settings": "Staphylococcus aureus ATCC25923"}, "[9]": {"settings": "Pseudomonas aeruginosa ATCC27853"}}}
{"substance": "4,7,2′-trihydroxy-4′-methoxyisoflavanol [compound 5]", "values": [{"measurement": "antimicrobial activity class of pure compounds by cutoff points", "setting": "[1]", "result": "significant/moderate"}, {"measurement": "number of colony-forming units on NaCl-supplemented media after pretreatment", "setting": "Staphylococcus aureus", "result": "significant decrease"}, {"measurement": "MMC", "setting": "[2]; MRSA03", "result": 32, "unit": "µg/mL"}, {"measurement": "MMC/MIC", "setting": "[2]; MRSA03", "result": 2}, {"measurement": "MIC", "setting": "[2]; MRSA03, 24 h, 37°C", "result": 16, "unit": "µg/mL"}, {"measurement": "MMC", "setting": "[3]; MRSA04", "result": 16, "unit": "µg/mL"}, {"measurement": "MMC/MIC", "setting": "[3]; MRSA04", "result": 1}, {"measurement": "MIC", "setting": "[3]; MRSA04, 24 h, 37°C", "result": 16, "unit": "µg/mL"}, {"measurement": "MMC", "setting": "[4]; Candida albicans ATCC10231", "result": 16, "unit": "µg/mL"}, {"measurement": "MMC/MIC", "setting": "[4]; Candida albicans ATCC10231", "result": 2}, {"measurement": "MIC", "setting": "[4]; Candida albicans ATCC10231, 48 h, 30°C", "result": 8, "unit": "µg/mL"}, {"measurement": "MMC", "setting": "Escherichia coli S2(1)", "result": 16, "unit": "µg/mL"}, {"measurement": "MMC/MIC", "setting": "Escherichia coli S2(1)", "result": 2}, {"measurement": "MIC", "setting": "Escherichia coli S2(1); 24 h, 37°C", "result": 8, "unit": "µg/mL"}, {"measurement": "MMC", "setting": "[5]; Cryptococcus neoformans H99", "result": 8, "unit": "µg/mL"}, {"measurement": "MMC/MIC", "setting": "[5]; Cryptococcus neoformans H99", "result": 1}, {"measurement": "MIC", "setting": "[5]; Cryptococcus neoformans H99, 72 h, 30°C", "result": 8, "unit": "µg/mL"}, {"measurement": "MMC", "setting": "[6]; [8]", "result": 8, "unit": "µg/mL"}, {"measurement": "MMC/MIC", "setting": "[6]; [8]", "result": 1}, {"measurement": "MIC", "setting": "[6]; Staphylococcus aureus ATCC25923, 24 h, 37°C", "result": 8, "unit": "µg/mL"}, {"measurement": "MMC", "setting": "[7]; [9]", "result": 8, "unit": "µg/mL"}, {"measurement": "MMC/MIC", "setting": "[7]; [9]", "result": 1}, {"measurement": "MIC", "setting": "[7]; Pseudomonas aeruginosa ATCC27853, 24 h, 37°C", "result": 8, "unit": "µg/mL"}]}
